Experimental data from PubChem BioAssay (NCI).
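96-well plates; 48 h exposure; 5 concentrations. Endpoints by linear interpolation between flanking doses. Not reached: highest tested concentration assigned. TGI: concentration producing complete growth inhibition.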

How the values were obtained:
Experiment in all cases: NCI tumour cell line growth inhibition, 48 h
A498 renal = test system: A498 renal
A549 NSCLC = test system: A549 NSCLC
CAKI-1 renal = test system: CAKI-1 renal
CCRF-CEM leukemia = test system: CCRF-CEM leukemia
COLO 205 colon = test system: COLO 205 colon
DLD-1 colon = test system: DLD-1 colon
DMS 114 small cell lung = test system: DMS 114 small cell lung
DMS 273 small cell lung = test system: DMS 273 small cell lung
EKVX NSCLC = test system: EKVX NSCLC
HCT-116 colon = test system: HCT-116 colon
HCT-15 colon = test system: HCT-15 colon
HL-60(TB) leukemia = test system: HL-60(TB) leukemia
HOP-18 NSCLC = test system: HOP-18 NSCLC
HOP-62 NSCLC = test system: HOP-62 NSCLC
HOP-92 NSCLC = test system: HOP-92 NSCLC
HT29 colon = test system: HT29 colon
IGROV1 ovarian = test system: IGROV1 ovarian
K-562 leukemia = test system: K-562 leukemia
KM12 colon = test system: KM12 colon
KM20L2 colon = test system: KM20L2 colon
LOX IMVI melanoma = test system: LOX IMVI melanoma
M19-MEL melanoma = test system: M19-MEL melanoma
MOLT-4 leukemia = test system: MOLT-4 leukemia
NCI-H226 lung = test system: NCI-H226 lung
NCI-H23 lung = test system: NCI-H23 lung
NCI-H460 lung = test system: NCI-H460 lung
NCI-H522 lung = test system: NCI-H522 lung
NCI/ADR-RES ovarian = test system: NCI/ADR-RES ovarian
OVCAR-3 ovarian = test system: OVCAR-3 ovarian
OVCAR-4 ovarian = test system: OVCAR-4 ovarian
OVCAR-5 ovarian = test system: OVCAR-5 ovarian
OVCAR-8 ovarian = test system: OVCAR-8 ovarian
P388 leukemia = test system: P388 leukemia
P388/ADR leukemia = test system: P388/ADR leukemia
RPMI-8226 leukemia = test system: RPMI-8226 leukemia
RXF 393 renal = test system: RXF 393 renal
SF-268 CNS = test system: SF-268 CNS
SF-295 CNS = test system: SF-295 CNS
SF-539 CNS = test system: SF-539 CNS
SK-MEL-2 melanoma = test system: SK-MEL-2 melanoma
SK-MEL-28 melanoma = test system: SK-MEL-28 melanoma
SK-MEL-5 melanoma = test system: SK-MEL-5 melanoma
SK-OV-3 ovarian = test system: SK-OV-3 ovarian
SN12C renal = test system: SN12C renal
SN12K1 renal = test system: SN12K1 renal
SNB-19 CNS = test system: SNB-19 CNS
SNB-75 CNS = test system: SNB-75 CNS
SNB-78 CNS = test system: SNB-78 CNS
SW-620 colon = test system: SW-620 colon
U251 CNS = test system: U251 CNS
UACC-257 melanoma = test system: UACC-257 melanoma
UACC-62 melanoma = test system: UACC-62 melanoma
UO-31 renal = test system: UO-31 renal
XF 498 CNS = test system: XF 498 CNS
786-0 renal = test system: 786-0 renal
ACHN renal = test system: ACHN renal
HCC-2998 colon = test system: HCC-2998 colon
LXFL 529 NSCLC = test system: LXFL 529 NSCLC
M14 melanoma = test system: M14 melanoma
MALME-3M melanoma = test system: MALME-3M melanoma
SR leukemia = test system: SR leukemia
TK-10 renal = test system: TK-10 renal
RXF-631 renal = test system: RXF-631 renal

O=c1c(-c2ccccc2)c[nH]c2cc([N+](=O)[O-])c(/C(Cl)=C/c3ccccc3)cc12
TGI (A498 renal): 35.4 µM
TGI (A549 NSCLC): 19.6 µM
TGI (CAKI-1 renal): 87.7 µM
TGI (CCRF-CEM leukemia): 20.3 µM
TGI (COLO 205 colon): > 38.2 µM
TGI (DLD-1 colon): 13.6 µM
TGI (DMS 114 small cell lung): 19 µM
TGI (DMS 273 small cell lung): > 38.7 µM
TGI (EKVX NSCLC): 18.6 µM
TGI (HCT-116 colon): 29.9 µM
TGI (HCT-15 colon): > 47.1 µM
TGI (HL-60(TB) leukemia): 31.6 µM
TGI (HOP-18 NSCLC): 23.1 µM
TGI (HOP-62 NSCLC): 52 µM
TGI (HOP-92 NSCLC): 10.6 µM
TGI (HT29 colon): > 51.6 µM
TGI (IGROV1 ovarian): > 38.6 µM
TGI (K-562 leukemia): 20.7 µM
TGI (KM12 colon): 38.6 µM
TGI (KM20L2 colon): > 54.3 µM
TGI (LOX IMVI melanoma): > 22.5 µM
TGI (M19-MEL melanoma): > 42.5 µM
TGI (MOLT-4 leukemia): 24 µM
TGI (NCI-H226 lung): 34 µM
TGI (NCI-H23 lung): > 44.5 µM
TGI (NCI-H460 lung): 44.8 µM
TGI (NCI-H522 lung): 16.3 µM
TGI (NCI/ADR-RES ovarian): 25.5 µM
TGI (OVCAR-3 ovarian): 8.72 µM
TGI (OVCAR-4 ovarian): 8.64 µM
TGI (OVCAR-5 ovarian): > 59.5 µM
TGI (OVCAR-8 ovarian): 17.5 µM
TGI (P388 leukemia): > 31.6 µM
TGI (P388/ADR leukemia): > 45.3 µM
TGI (RPMI-8226 leukemia): 9.98 µM
TGI (RXF 393 renal): 29.5 µM
TGI (SF-268 CNS): 16.7 µM
TGI (SF-295 CNS): 26.5 µM
TGI (SF-539 CNS): 27.7 µM
TGI (SK-MEL-2 melanoma): > 100 µM
TGI (SK-MEL-28 melanoma): > 55.1 µM
TGI (SK-MEL-5 melanoma): 25.8 µM
TGI (SK-OV-3 ovarian): > 100 µM
TGI (SN12C renal): 43.7 µM
TGI (SN12K1 renal): > 41.7 µM
TGI (SNB-19 CNS): > 54.5 µM
TGI (SNB-75 CNS): 24.1 µM
TGI (SNB-78 CNS): > 27 µM
TGI (SW-620 colon): 26.8 µM
TGI (U251 CNS): 24.4 µM
TGI (UACC-257 melanoma): 97.3 µM
TGI (UACC-62 melanoma): 22.6 µM
TGI (UO-31 renal): 36.8 µM
TGI (XF 498 CNS): 23.7 µM

Cc1cc(Cl)ccc1NC(=O)C1C(=O)N(c2ccc(Cl)cc2C)C(=O)/C1=N\N (centres undefined)
TGI (786-0 renal): > 100 µM
TGI (A498 renal): 93.7 µM
TGI (A549 NSCLC): > 100 µM
TGI (ACHN renal): > 100 µM
TGI (CAKI-1 renal): > 100 µM
TGI (CCRF-CEM leukemia): > 100 µM
TGI (COLO 205 colon): > 100 µM
TGI (DMS 114 small cell lung): > 100 µM
TGI (EKVX NSCLC): > 100 µM
TGI (HCC-2998 colon): 67.3 µM
TGI (HCT-116 colon): > 100 µM
TGI (HCT-15 colon): > 100 µM
TGI (HL-60(TB) leukemia): > 100 µM
TGI (HOP-18 NSCLC): > 100 µM
TGI (HOP-62 NSCLC): > 100 µM
TGI (HOP-92 NSCLC): > 100 µM
TGI (HT29 colon): > 100 µM
TGI (IGROV1 ovarian): > 100 µM
TGI (K-562 leukemia): > 100 µM
TGI (KM12 colon): > 100 µM
TGI (KM20L2 colon): > 100 µM
TGI (LOX IMVI melanoma): > 100 µM
TGI (LXFL 529 NSCLC): > 100 µM
TGI (M14 melanoma): > 100 µM
TGI (M19-MEL melanoma): > 100 µM
TGI (MALME-3M melanoma): > 100 µM
TGI (MOLT-4 leukemia): > 100 µM
TGI (NCI-H226 lung): 93.8 µM
TGI (NCI-H23 lung): > 100 µM
TGI (NCI-H460 lung): > 100 µM
TGI (NCI-H522 lung): > 100 µM
TGI (OVCAR-3 ovarian): > 100 µM
TGI (OVCAR-4 ovarian): > 100 µM
TGI (OVCAR-5 ovarian): > 100 µM
TGI (OVCAR-8 ovarian): > 100 µM
TGI (RPMI-8226 leukemia): > 100 µM
TGI (RXF 393 renal): > 100 µM
TGI (SF-268 CNS): 96.4 µM
TGI (SF-295 CNS): > 100 µM
TGI (SF-539 CNS): > 100 µM
TGI (SK-MEL-2 melanoma): 90.9 µM
TGI (SK-MEL-28 melanoma): > 100 µM
TGI (SK-MEL-5 melanoma): > 100 µM
TGI (SK-OV-3 ovarian): > 100 µM
TGI (SN12C renal): > 100 µM
TGI (SNB-19 CNS): > 100 µM
TGI (SNB-75 CNS): > 100 µM
TGI (SNB-78 CNS): > 100 µM
TGI (SR leukemia): > 100 µM
TGI (SW-620 colon): > 100 µM
TGI (TK-10 renal): 99.3 µM
TGI (U251 CNS): > 100 µM
TGI (UACC-257 melanoma): > 100 µM
TGI (UACC-62 melanoma): > 100 µM
TGI (UO-31 renal): > 100 µM
TGI (XF 498 CNS): > 100 µM

Cn1cc(C(=O)C2CCCCC2)ccc1=O
TGI (786-0 renal): > 100 µM
TGI (A549 NSCLC): > 100 µM
TGI (ACHN renal): > 100 µM
TGI (CAKI-1 renal): > 100 µM
TGI (CCRF-CEM leukemia): > 100 µM
TGI (COLO 205 colon): > 100 µM
TGI (DLD-1 colon): > 100 µM
TGI (DMS 114 small cell lung): > 100 µM
TGI (DMS 273 small cell lung): > 100 µM
TGI (EKVX NSCLC): > 100 µM
TGI (HCC-2998 colon): > 100 µM
TGI (HCT-116 colon): > 100 µM
TGI (HCT-15 colon): > 100 µM
TGI (HL-60(TB) leukemia): > 100 µM
TGI (HOP-62 NSCLC): > 100 µM
TGI (HOP-92 NSCLC): > 100 µM
TGI (HT29 colon): > 100 µM
TGI (IGROV1 ovarian): > 100 µM
TGI (K-562 leukemia): > 100 µM
TGI (KM12 colon): > 100 µM
TGI (KM20L2 colon): > 100 µM
TGI (LOX IMVI melanoma): > 100 µM
TGI (M14 melanoma): > 100 µM
TGI (MALME-3M melanoma): > 100 µM
TGI (MOLT-4 leukemia): > 100 µM
TGI (NCI-H226 lung): > 100 µM
TGI (NCI-H23 lung): > 100 µM
TGI (NCI-H460 lung): > 100 µM
TGI (NCI-H522 lung): > 100 µM
TGI (OVCAR-3 ovarian): > 100 µM
TGI (OVCAR-4 ovarian): > 100 µM
TGI (OVCAR-5 ovarian): > 100 µM
TGI (OVCAR-8 ovarian): > 100 µM
TGI (RPMI-8226 leukemia): > 100 µM
TGI (RXF 393 renal): > 100 µM
TGI (RXF-631 renal): > 100 µM
TGI (SF-268 CNS): > 100 µM
TGI (SF-295 CNS): > 100 µM
TGI (SF-539 CNS): > 100 µM
TGI (SK-MEL-2 melanoma): > 100 µM
TGI (SK-MEL-28 melanoma): > 100 µM
TGI (SK-MEL-5 melanoma): > 100 µM
TGI (SK-OV-3 ovarian): > 100 µM
TGI (SN12C renal): > 100 µM
TGI (SNB-19 CNS): > 100 µM
TGI (SNB-75 CNS): > 100 µM
TGI (SNB-78 CNS): > 100 µM
TGI (SR leukemia): > 100 µM
TGI (SW-620 colon): > 100 µM
TGI (TK-10 renal): > 100 µM
TGI (U251 CNS): > 100 µM
TGI (UACC-62 melanoma): > 100 µM
TGI (UO-31 renal): > 100 µM
TGI (XF 498 CNS): > 100 µM
